Laboratory results: the NIST ThermoML archive (doi:10.1016/j.jct.2014.01.012)

Experiment: xn = mol fraction of the nth substance listed
Conditions: 101 kPa, Liquid

CCCCCCCC[n+]1ccn(C)c1.F[P-](F)(F)(F)(F)F [1-octyl-3-methylimidazolium hexafluorophosphate] + CCOC(C)=O
Conditions | mass density [kg/m3] | speed of sound [m/s]
293.15 K, x1 = 0.1056 | 992.13 | 1246.8
293.15 K, x1 = 0.2064 | 1052.79 | 1300.8
293.15 K, x1 = 0.308 | 1097.25 | 1323
293.15 K, x1 = 0.4094 | 1130.77 | 1339
293.15 K, x1 = 0.4991 | 1154.21 | 1349
293.15 K, x1 = 0.5916 | 1174.12 | 1356.8
293.15 K, x1 = 0.694 | 1192.49 | 1363.1
293.15 K, x1 = 0.8121 | 1210.2 | 1368.1
293.15 K, x1 = 0.8895 | 1220.31 | 1374.2
293.15 K, x1 = 1 | 1222.81 | 1388.2
298.15 K, x1 = 0.1056 | 987.426 | 1228.2
298.15 K, x1 = 0.2064 | 1048.5 | 1284.8
298.15 K, x1 = 0.308 | 1093.04 | 1303.4
298.15 K, x1 = 0.4094 | 1126.53 | 1325
298.15 K, x1 = 0.4991 | 1150 | 1335.1
298.15 K, x1 = 0.5916 | 1169.99 | 1342.7
298.15 K, x1 = 0.694 | 1188.53 | 1348.9
298.15 K, x1 = 0.8121 | 1206.48 | 1353.8
298.15 K, x1 = 0.8895 | 1216.63 | 1358.3
298.15 K, x1 = 1 | 1218.9 | 1373.4
303.15 K, x1 = 0.1056 | 982.485 | 1209.8
303.15 K, x1 = 0.2064 | 1044 | 1268.9
303.15 K, x1 = 0.308 | 1088.65 | 1288.2
303.15 K, x1 = 0.4094 | 1122.2 | 1309
303.15 K, x1 = 0.4991 | 1145.83 | 1320.9
303.15 K, x1 = 0.5916 | 1166.01 | 1328.6
303.15 K, x1 = 0.694 | 1184.79 | 1334.7
303.15 K, x1 = 0.8121 | 1202.87 | 1339.7
303.15 K, x1 = 0.8895 | 1212.97 | 1345.2
303.15 K, x1 = 1 | 1214.96 | 1359.3
308.15 K, x1 = 0.1056 | 977.389 | 1191.5
308.15 K, x1 = 0.2064 | 1039.34 | 1253
308.15 K, x1 = 0.308 | 1084.23 | 1273.5
308.15 K, x1 = 0.4094 | 1117.99 | 1298
308.15 K, x1 = 0.4991 | 1141.76 | 1306.3
308.15 K, x1 = 0.5916 | 1162.11 | 1314.2
308.15 K, x1 = 0.694 | 1180.99 | 1320.5
308.15 K, x1 = 0.8121 | 1199.1 | 1325.6
308.15 K, x1 = 0.8895 | 1209.17 | 1331.3
308.15 K, x1 = 1 | 1211.13 | 1345.8
313.15 K, x1 = 0.1056 | 972.526 | 1173.3
313.15 K, x1 = 0.2064 | 1034.74 | 1237.5
313.15 K, x1 = 0.308 | 1079.71 | 1258.3
313.15 K, x1 = 0.4094 | 1113.66 | 1282
313.15 K, x1 = 0.4991 | 1137.66 | 1292.8
313.15 K, x1 = 0.5916 | 1158.28 | 1300.8
313.15 K, x1 = 0.694 | 1177.41 | 1307.2
313.15 K, x1 = 0.8121 | 1195.57 | 1312.3
313.15 K, x1 = 0.8895 | 1205.55 | 1318.4
313.15 K, x1 = 1 | 1207.33 | 1332.7
318.15 K, x1 = 0.1056 | 967.143 | 1155.2
318.15 K, x1 = 0.2064 | 1029.94 | 1222.1
318.15 K, x1 = 0.308 | 1075.23 | 1243.5
318.15 K, x1 = 0.4094 | 1109.39 | 1268
318.15 K, x1 = 0.4991 | 1133.54 | 1279.3
318.15 K, x1 = 0.5916 | 1154.33 | 1287.5
318.15 K, x1 = 0.694 | 1173.67 | 1294
318.15 K, x1 = 0.8121 | 1192.1 | 1299.2
318.15 K, x1 = 0.8895 | 1202.11 | 1305.2
318.15 K, x1 = 1 | 1203.5 | 1320.1
323.15 K, x1 = 0.1056 | 962.069 | 1132.4
323.15 K, x1 = 0.2064 | 1025.26 | 1206.9
323.15 K, x1 = 0.308 | 1070.7 | 1229.1
323.15 K, x1 = 0.4094 | 1105.03 | 1250
323.15 K, x1 = 0.4991 | 1129.38 | 1265.9
323.15 K, x1 = 0.5916 | 1150.44 | 1274.2
323.15 K, x1 = 0.694 | 1170.05 | 1280.9
323.15 K, x1 = 0.8121 | 1188.56 | 1286.3
323.15 K, x1 = 0.8895 | 1198.5 | 1292.2
323.15 K, x1 = 1 | 1199.67 | 1307.7
